Experiments:
MLKL [1] = target: T1, MLKL (Homo sapiens, UniProt Q8NB16); test: Measurement of binding affinity with MLKL receptor (competitive binding assay, Kd); design: made in house; host or cells: HEK 293 cell line (T7 phage in E. coli BL21-derived host is also described)
T1 sequence (Q8NB16 1-471): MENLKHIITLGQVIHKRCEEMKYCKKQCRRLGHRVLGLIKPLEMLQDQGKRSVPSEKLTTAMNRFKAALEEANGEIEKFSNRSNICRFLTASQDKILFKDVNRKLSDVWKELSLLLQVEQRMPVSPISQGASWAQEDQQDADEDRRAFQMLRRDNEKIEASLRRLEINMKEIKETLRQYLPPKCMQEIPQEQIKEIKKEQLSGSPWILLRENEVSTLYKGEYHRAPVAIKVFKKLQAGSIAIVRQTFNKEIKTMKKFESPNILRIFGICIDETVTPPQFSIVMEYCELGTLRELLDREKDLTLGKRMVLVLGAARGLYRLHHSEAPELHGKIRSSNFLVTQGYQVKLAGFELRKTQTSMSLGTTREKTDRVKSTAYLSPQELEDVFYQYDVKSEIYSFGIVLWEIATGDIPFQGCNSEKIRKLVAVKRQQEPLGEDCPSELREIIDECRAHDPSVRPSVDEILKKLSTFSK
Outline: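 HEK 293-expressed, DNA-tagged MLKL; ligand beads blocked with biotin and SeaBlock/1% BSA/0.05% Tween 20/1 mM DTT buffer. Cpd from 111× DMSO stock, 0.9% DMSO final. Eluted kinase by qPCR → Kd.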

MLKL [2] = target: T1, MLKL; test: MLKL degradation assay in HepG2 cell line (western blot); type: cell-based; design: endogenous in cells; host or cells: HepG2 or HaCaT; conditions: cell line not given; for Degradation assay (Degradation %) 1 μM: compound 1 μM; for Degradation assay (Degradation %) 10 μM: compound 10 μM
Outline: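 HepG2, cpd final 1 or 10 μM, 20-24 h, 37 °C/5% CO2; RIPA lysis, BCA-normalized, 10-15 μg/lane SDS-PAGE, western blot, ECL read-out.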

FADD−/− Jurkat cells = test: Necroptosis inhibition assay, TNF-α-induced necroptosis (CellTiter-Glo 2.0); type: cell-based, human; conditions: TNF-α 15 ng/mL; for Necroptosis inhibition assay (Rescue %) 1 μM: compound 1 μM; for Necroptosis inhibition assay (Rescue %) 10 μM: compound 10 μM
Outline: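 Cmpd 0.1/1/10 μM final, 30 min RT preincubation; TNF-α 15 ng/mL final; 20–24 h, 37° C, 5% CO2. Readout: ATP luminescence (reagent 1:3 in PBS), 0.5 s/well. Cytotoxicity and % necroptosis inhibition calculated from signal.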

Row | Compound | Kd (MLKL [1]) [nM] | Degradation assay (Degradation %) 1 μM (MLKL [2]) [%] | Degradation assay (Degradation %) 10 μM (MLKL [2]) [%] | Necroptosis inhibition assay (Rescue %) 1 μM (FADD−/− Jurkat cells) [%] | Necroptosis inhibition assay (Rescue %) 10 μM (FADD−/− Jurkat cells) [%]
1 | Nc1ncc(-c2cnn(C3CCN(CCOC4CCN(C(=O)CC5CCN(c6cccc7c6C(=O)N(C6CCC(=O)NC6=O)C7=O)CC5)CC4)CC3)c2)nc1C(=O)O[C@@H](C(=O)Nc1ccc(F)cc1)c1ccccc1 (stereo partly drawn) [TDH-371, (R)-2-((4-fluorophenyl)amino)-2-oxo-1-phenylethyl 3-amino-6-(1-(1-(2-((1-(2-(1-(2-(2,6-dioxopiperidin-3-yl)-1,3-dioxoisoindolin-4-yl)piperidin-4-yl)acetyl)piperidin-4-yl)oxy)ethyl)piperidin-4-yl)-1H-pyrazol-4-yl)pyrazine-2-carboxylate] | 3.7 | 82.38 | 83.26 | 35.76 | 25.74
2 | Nc1ncc(-c2cnn(C3CCN(CCOC4CCN(C(=O)CC5CCN(c6ccc7c(c6)C(=O)N(C6CCC(=O)NC6=O)C7=O)CC5)CC4)CC3)c2)nc1C(=O)O[C@@H](C(=O)Nc1ccc(F)cc1)c1ccccc1 (stereo partly drawn) [TDH-372, (R)-2-((4-fluorophenyl)amino)-2-oxo-1-phenylethyl 3-amino-6-(1-(1-(2-((1-(2-(1-(2-(2,6-dioxopiperidin-3-yl)-1,3-dioxoisoindolin-5-yl)piperidin-4-yl)acetyl)piperidin-4-yl)oxy)ethyl)piperidin-4-yl)-1H-pyrazol-4-yl)pyrazine-2-carboxylate] | 12 | 78.14 | 81.79 | 26.36 | 28.54
3 | Nc1ncc(-c2cnn(C3CCN(CCOC4CCN(C(=O)COc5ccc6nnn(C7CCC(=O)NC7=O)c(=O)c6c5)CC4)CC3)c2)nc1C(=O)O[C@@H](C(=O)Nc1ccc(F)cc1)c1ccccc1 (stereo partly drawn) [TDH-373, (R)-2-((4-fluorophenyl)amino)-2-oxo-1-phenylethyl 3-amino-6-(1-(1-(2-((1-(2-((3-(2,6-dioxopiperidin-3-yl)-4-oxo-3,4-dihydrobenzo[d][1,2,3]triazin-6-yl)oxy)acetyl)piperidin-4-yl)oxy)ethyl)piperidin-4-yl)-1H-pyrazol-4-yl)pyrazine-2-carboxylate] | 1.4 | 87.78 | 86.6 | 62.68 | 40.09
4 | Nc1ncc(-c2cnn(C3CCN(C(=O)C4CCN(C(=O)CC5CCN(c6cccc7c6C(=O)N(C6CCC(=O)NC6=O)C7=O)CC5)CC4)CC3)c2)nc1C(=O)O[C@@H](C(=O)Nc1ccc(F)cc1)c1ccccc1 (stereo partly drawn) [TDH-374, (R)-2-((4-fluorophenyl)amino)-2-oxo-1-phenylethyl 3-amino-6-(1-(1-(1-(2-(1-(2-(2,6-dioxopiperidin-3-yl)-1,3-dioxoisoindolin-4-yl)piperidin-4-yl)acetyl)piperidine-4-carbonyl)piperidin-4-yl)-1H-pyrazol-4-yl)pyrazine-2-carboxylate] | 2.7 | 93.73 | 91.38 | 39.14 | 32.53
5 | Nc1ncc(-c2cnn(C3CCN(C(=O)C4CCN(C(=O)CC5CCN(c6ccc7c(c6)C(=O)N(C6CCC(=O)NC6=O)C7=O)CC5)CC4)CC3)c2)nc1C(=O)O[C@@H](C(=O)Nc1ccc(F)cc1)c1ccccc1 (stereo partly drawn) [TDH-375, (R)-2-((4-fluorophenyl)amino)-2-oxo-1-phenylethyl 3-amino-6-(1-(1-(1-(2-(1-(2-(2,6-dioxopiperidin-3-yl)-1,3-dioxoisoindolin-5-yl)piperidin-4-yl)acetyl)piperidine-4-carbonyl)piperidin-4-yl)-1H-pyrazol-4-yl)pyrazine-2-carboxylate] | 2.3 | 93.86 | 86.43 | 30.67 | 20.44
6 | Nc1ncc(-c2cnn(C3CCN(CCC4CCN(C(=O)CCc5cccc6c5C(=O)N(C5CCC(=O)NC5=O)C6=O)CC4)CC3)c2)nc1C(=O)O[C@@H](C(=O)Nc1ccc(F)cc1)c1ccccc1 (stereo partly drawn) [TDH-376, (R)-2-((4-fluorophenyl)amino)-2-oxo-1-phenylethyl 3-amino-6-(1-(1-(2-(1-(3-(2-(2,6-dioxopiperidin-3-yl)-1,3-dioxoisoindolin-4-yl)propanoyl)piperidin-4-yl)ethyl)piperidin-4-yl)-1H-pyrazol-4-yl)pyrazine-2-carboxylate] | 0.54 | 93.13 | 86.31 | 76.20 | 30.33
7 | Nc1ncc(-c2cnn(C3CCN(CCC4CCN(C(=O)CCc5ccc6c(c5)C(=O)N(C5CCC(=O)NC5=O)C6=O)CC4)CC3)c2)nc1C(=O)O[C@@H](C(=O)Nc1ccc(F)cc1)c1ccccc1 (stereo partly drawn) [TDH-377, (R)-2-((4-fluorophenyl)amino)-2-oxo-1-phenylethyl 3-amino-6-(1-(1-(2-(1-(3-(2-(2,6-dioxopiperidin-3-yl)-1,3-dioxoisoindolin-5-yl)propanoyl)piperidin-4-yl)ethyl)piperidin-4-yl)-1H-pyrazol-4-yl)pyrazine-2-carboxylate] | 0.61 | 89.95 | 82.82 | 62.50 | 27.37
8 | Nc1ncc(-c2cnn(C3CCN(CCOC4CCN(C(=O)CCc5cccc6c5C(=O)N(C5CCC(=O)NC5=O)C6=O)CC4)CC3)c2)nc1C(=O)O[C@@H](C(=O)Nc1ccc(F)cc1)c1ccccc1 (stereo partly drawn) [TDH-378, (R)-2-((4-fluorophenyl)amino)-2-oxo-1-phenylethyl 3-amino-6-(1-(1-(2-((1-(3-(2-(2,6-dioxopiperidin-3-yl)-1,3-dioxoisoindolin-4-yl)propanoyl)piperidin-4-yl)oxy)ethyl)piperidin-4-yl)-1H-pyrazol-4-yl)pyrazine-2-carboxylate] | 2 | 88.62 | 80.01 | 49.61 | 28.89

The next lines start with results.

Row | Kd (MLKL [1]) [nM] | Degradation assay (Degradation %) 1 μM (MLKL [2]) [%] | Degradation assay (Degradation %) 10 μM (MLKL [2]) [%] | Compound | Necroptosis inhibition assay (Rescue %) 1 μM (FADD−/− Jurkat cells) [%] | Necroptosis inhibition assay (Rescue %) 10 μM (FADD−/− Jurkat cells) [%]
9 | 2.9 | 69.78 | 88.75 | Nc1ncc(-c2cnn(C3CCN(CCOC4CCN(C(=O)CCc5ccc6c(c5)C(=O)N(C5CCC(=O)NC5=O)C6=O)CC4)CC3)c2)nc1C(=O)O[C@@H](C(=O)Nc1ccc(F)cc1)c1ccccc1 (stereo partly drawn) [TDH-379, (R)-2-((4-fluorophenyl)amino)-2-oxo-1-phenylethyl 3-amino-6-(1-(1-(2-((1-(3-(2-(2,6-dioxopiperidin-3-yl)-1,3-dioxoisoindolin-5-yl)propanoyl)piperidin-4-yl)oxy)ethyl)piperidin-4-yl)-1H-pyrazol-4-yl)pyrazine-2-carboxylate] | 36.70 | 28.98
10 | 1.5 | 86.88 | 95.41 | Nc1ncc(-c2cnn(C3CCN(C(=O)C4CCN(C(=O)CCc5cccc6c5C(=O)N(C5CCC(=O)NC5=O)C6=O)CC4)CC3)c2)nc1C(=O)O[C@@H](C(=O)Nc1ccc(F)cc1)c1ccccc1 (stereo partly drawn) [TDH-380, (R)-2-((4-fluorophenyl)amino)-2-oxo-1-phenylethyl 3-amino-6-(1-(1-(1-(3-(2-(2,6-dioxopiperidin-3-yl)-1,3-dioxoisoindolin-4-yl)propanoyl)piperidine-4-carbonyl)piperidin-4-yl)-1H-pyrazol-4-yl)pyrazine-2-carboxylate] | 38.37 | 35.96
11 | 1.5 | 78.38 | 77.07 | Nc1ncc(-c2cnn(C3CCN(C(=O)C4CCN(C(=O)CCc5ccc6c(c5)C(=O)N(C5CCC(=O)NC5=O)C6=O)CC4)CC3)c2)nc1C(=O)O[C@@H](C(=O)Nc1ccc(F)cc1)c1ccccc1 (stereo partly drawn) [TDH-381, (R)-2-((4-fluorophenyl)amino)-2-oxo-1-phenylethyl 3-amino-6-(1-(1-(1-(3-(2-(2,6-dioxopiperidin-3-yl)-1,3-dioxoisoindolin-5-yl)propanoyl)piperidine-4-carbonyl)piperidin-4-yl)-1H-pyrazol-4-yl)pyrazine-2-carboxylate] | 32.48 | 28.99

— patent US20240252488A1 (KOREA RESEARCH INSTITUTE OF CHEMICAL TECHNOLOGY, priority 2020, published 2024)
